In ChEMBL document CHEMBL3638961, “Oxazine derivatives” (2015):

Biological target: Beta-secretase 1 (Homo sapiens, UniProt P56817)
Test: Inhitbition Assay: 48.5 µL of substrate peptide solution (Biotin-XSEVNLDAEFRHDSGC-Eu: X=ε-amino-n-capronic acid, Eu=Europium cryptate) was added to each well of 96-hole half-area plate (a black plate: Costar), and after addition of 0.5 µl of the test compound (dissolved in N,N'-dimethyl formaldehyde) and 1 µl of Recombinant human BACE1(R&D Systems), the reaction mixture was incubated at 30° C. for 3 hours. The substrate peptide was synthesized by reacting Cryptate TBPCOOH mono SMP (CIS bio international) with Biotin-XSEVNLDAEFRHDSGC (Peptide Institute, Inc.). The final concentrations of the substrate peptide and Recombinant human BACE1 were adjusted to 18 nmol/L and 7.4 nmol/L, respectively, and the reaction was performed in sodium acetate buffer (50 mmol/L sodium acetate, pH 5.0, 0.008% Triton X-100).After the incubation for reaction, 50 µl of 8.0 µg/ml Streptavidin-XL665 (CIS bio international) dissolved in phosphate buffer.

Beta-secretase 1, sequence (P56817 whole entry): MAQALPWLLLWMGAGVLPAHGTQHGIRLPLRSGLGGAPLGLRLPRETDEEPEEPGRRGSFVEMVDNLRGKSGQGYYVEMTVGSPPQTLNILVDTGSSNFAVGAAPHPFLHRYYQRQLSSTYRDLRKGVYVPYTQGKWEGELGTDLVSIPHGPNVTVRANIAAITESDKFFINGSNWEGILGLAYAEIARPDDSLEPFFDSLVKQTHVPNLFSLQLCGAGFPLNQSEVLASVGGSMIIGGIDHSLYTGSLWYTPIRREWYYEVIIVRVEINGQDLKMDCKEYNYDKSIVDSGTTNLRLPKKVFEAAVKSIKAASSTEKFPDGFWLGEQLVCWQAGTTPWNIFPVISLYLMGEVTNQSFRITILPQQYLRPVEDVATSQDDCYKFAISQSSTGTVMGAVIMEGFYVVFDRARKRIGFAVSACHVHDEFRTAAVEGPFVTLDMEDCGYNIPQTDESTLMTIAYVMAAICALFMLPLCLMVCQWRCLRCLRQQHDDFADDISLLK

Compound | IC50
C[C@@]1(c2cc(NC(=O)c3ccc(C#N)cn3)ccc2Cl)CCOC(N)=N1 | < 30 µM
COc1cnc(C(=O)Nc2ccc(F)c([C@]3(C)C=C(C)OC(N)=N3)c2)cn1 | < 30 µM
C[C@@]1(c2cc(NC(=O)c3ncc(F)cc3F)ccc2F)CCOC(N)=N1 | < 30 µM
CC1=C[C@@](C)(c2cc(NC(=O)c3ncc(F)cc3F)ccc2F)N=C(N)O1 | < 30 µM
CC1=C[C@@](C)(c2cc(NC(=O)c3ccc(Cl)cn3)ccc2F)N=C(N)O1 | < 30 µM
CC1=C[C@@](C)(c2cc(NC(=O)c3ncc(C#N)cc3F)ccc2F)N=C(N)O1 | < 30 µM
CC1=C[C@@](C)(c2cc(NC(=O)c3ccc(C(F)(F)F)cn3)ccc2F)N=C(N)O1 | < 30 µM
